Assay [1] addresses human SOS1 (Homo sapiens (Human), UniProt Q07889). The assay can be described thus: Surface Plasmon Resonance (SPR) SOS1 Binding Assay. Conditions: biotinylated SOS1 (res. 564-1049), 25° C., kinetic or steady state fit, read-out: KD for hSOS1. How it is done: Binding to SOS1 was measured using a SPR assay with purified recombinant human SOS1 substrate (res. 564-1049 with N-terminal Avi tag; purified and biotinylated based on Hillig, et al., Proc Natl Acad Sci USA (2019); 116(7):2551-2560). SPR measurements were performed on a Biacore 8K SPR instrument (GE Healthcare, Sweden). Assays were performed at 25° C. using Series S SA sensor chips pre-coated with streptavidin (GE Healthcare, Cat. BR100531). Biotinylated SOS1 diluted in sample buffer (20 mM Tris HCl, 150 mM NaCl, 1 mM DTT, 0.05% TWEEN 20, 1 mM MgCl2, pH 8.0) was captured to one flow cell of the chip to about 3,000 resonance units (RU) using sample buffer supplemented with 5% DMSO as a running buffer. Serial dilutions of the assayed compounds in the running buffer at 100, 50 or 0.5 μM were injected for 60 s at a flow rate of 30 μL/min and association phases were recorded. Dissociation of the samples was monitored for 600 s. Data processing was performed using Biacore Insight Software (Biacore, GE Healthcare). Sensorgrams recorded on a SA flow cell without captured protein were subtracted from sensorgrams recorded on the SOS1 surface. Blank injections of running buffer were used for double referencing and solvent correction was applied to all sample sensorgrams to correct for buffer mismatches. KDs were estimated using a kinetic or steady state, where applicable, fitting model describing a reversible equilibrium with 1:1 binding between SOS1 and the compound.

In assay [2] the target is SOS1:KRAS (G12C) interaction (Homo sapiens (Human), UniProt Q07889). In words: SOS1-KRas(G12C) FRET Assay. The format is binding. The settings on record: 0.5 nM His10-SOS1 (res. 564-1049), 2.5 nM GST-KRAS (res. 1-169, G12C); read-out: SOS-KRas(G12C) FRET IC50. The method, boiled down: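 TR-FRET measured binding of His10-SOS1 (res. 564-1049, 0.5 nM) to GST-KRAS G12C (res. 1-169, 2.5 nM), with anti-GST-Eu(K) and anti-6His-XL665 labels, in PBS with BSA, MgCl2, KF and DTT; 0.5% DMSO. Compound and SOS1 were pre-incubated 15 min at 25° C, KRAS was added, and the plate was read at 665/615 nm after 2 h at RT. IC50 and Hill slope came from non-linear regression.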
Chain of SOS1:KRAS (G12C) interaction (Q07889 564-1049, stated change not applied): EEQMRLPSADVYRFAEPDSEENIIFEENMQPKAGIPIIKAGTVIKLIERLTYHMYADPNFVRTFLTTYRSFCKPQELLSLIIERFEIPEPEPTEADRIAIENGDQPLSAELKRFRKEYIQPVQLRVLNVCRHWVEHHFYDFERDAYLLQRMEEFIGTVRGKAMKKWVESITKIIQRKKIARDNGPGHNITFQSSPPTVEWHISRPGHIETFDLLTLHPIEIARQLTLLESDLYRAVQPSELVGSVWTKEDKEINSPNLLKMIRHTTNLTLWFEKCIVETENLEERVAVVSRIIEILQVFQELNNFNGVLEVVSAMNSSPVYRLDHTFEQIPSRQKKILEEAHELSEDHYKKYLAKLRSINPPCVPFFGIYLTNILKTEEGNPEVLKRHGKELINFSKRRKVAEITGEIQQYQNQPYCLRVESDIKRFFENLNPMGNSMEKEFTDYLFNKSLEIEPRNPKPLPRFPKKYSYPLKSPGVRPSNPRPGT

Chain of human SOS1 (Q07889 564-1049): as the sequence (Q07889 564-1049, stated change not applied) above

Consider `C[C@@H](Nc1nn(C)c(=O)c2cc(=O)n(C3CC3)cc12)c1ccc2c(C#N)nn(C)c2c1` (single isomer, unassigned) [Example 25], for which the Kd (as a rule, the concentration at which binding is half-saturated) in assay [1] was determined as 225 nM. Besides, the IC50 (in general, the concentration needed to halve the response being measured) in assay [2] was 3860 nM.
`C[C@H](Nc1nn(C)c(=O)c2cc(=O)n(C3CC3)cc12)c1ccc2c(C#N)nn(C)c2c1` (single isomer, unassigned) [Example 26]: the Kd in assay [1] is over 50000 nM. Further, the IC50 in assay [2] came out at 100000 nM.
On the same counts, the results for `Cc1cc([C@@H](C)Nc2nn(C)c(=O)c3cc(=O)n(C4CC4)cc23)cc2c1c(C#N)nn2C` (single isomer, unassigned) [Example 27] are 134 nM and 1530 nM.
For `Cc1cc([C@H](C)Nc2nn(C)c(=O)c3cc(=O)n(C4CC4)cc23)cc2c1c(C#N)nn2C` (single isomer, unassigned) [Example 28], in that order: 3020 nM and 76200 nM.
For the compound `C[C@@H](Nc1nn(C)c(=O)c2cc(=O)n([C@H]3CCOC[C@@H]3F)cc12)c1cccc(C(F)F)c1F` (single isomer, unassigned) [Example 30], the Kd in assay [1] amounted to 9 nM. Moreover, the IC50 in assay [2] came to 20.7 nM.
Take `C[C@@H](Nc1nn(C)c(=O)c2cc(=O)n([C@@H]3CCOC[C@H]3F)cc12)c1cccc(C(F)F)c1F` (single isomer, unassigned) [Example 31]: in assay [1], the Kd is 45 nM. Moreover, the concentration for half-maximal inhibition (IC50) in assay [2] is 146 nM.
On the same counts, the results for `C[C@@H](Nc1nn(C)c(=O)c2cc(=O)n([C@@H]3CCOC[C@@H]3F)cc12)c1cccc(C(F)F)c1F` (single isomer, unassigned) [Example 32] are 229 nM and 1050 nM.
For `C[C@@H](Nc1nn(C)c(=O)c2cc(=O)n([C@H]3CCOC[C@H]3F)cc12)c1cccc(C(F)F)c1F` (single isomer, unassigned) [Example 33], in that order: 8 nM and 31.3 nM.
On the same counts, the results for `Cc1c([C@@H](C)Nc2nn(C)c(=O)c3c([C@@H]4CCCN4)c(=O)n(C4CC4)cc23)cccc1C(F)(F)F` (single isomer, unassigned) [Example 34] are 10 nM and 43.9 nM.
Take `C[C@@H](Nc1nn(C)c(=O)c2cc(=O)n([C@H]3CCCOC3)cc12)c1cccc(C(F)F)c1F` (single isomer, unassigned) [Example 38]: the Kd in assay [1] worked out at 43 nM. For the same compound, in assay [2], the IC50 was determined as 211 nM.
On the same counts, the results for `C[C@@H](Nc1nn(C)c(=O)c2cc(=O)n([C@@H]3CCCOC3)cc12)c1cccc(C(F)F)c1F` (single isomer, unassigned) [Example 39] are 43 nM and 160 nM.
For `C[C@H](Nc1nn(C)c(=O)c2cc(=O)n(C3CCOCC3)cc12)c1cccc(C(F)(F)[C@@H]2CCCO2)c1F` (single isomer, unassigned) [Example 44], in that order: over 5000 nM and 5810 nM.
For the compound `C[C@@H](Nc1nn(C)c(=O)c2cc(=O)n(C3CCOCC3)cc12)c1cccc(C(F)(F)[C@@H]2CCCO2)c1F` (single isomer, unassigned) [Example 45], the Kd in assay [1] is 10 nM. The half-inhibitory concentration (IC50) in assay [2] was determined as 23.4 nM.
On the same counts, the results for `C[C@@H](Nc1nn(C)c(=O)c2cc(=O)n([C@@]3(C)CCOC3)cc12)c1cccc(C(F)F)c1F` (single isomer, unassigned) [Example 52] are 76 nM and 272 nM.
For `C[C@@H](Nc1nn(C)c(=O)c2cc(=O)n([C@]3(C)CCOC3)cc12)c1cccc(C(F)F)c1F` (single isomer, unassigned) [Example 53], in that order: 7 nM and 30.3 nM.
For `Cc1c([C@@H](C)Nc2nn(C)c(=O)c3cc(=O)n([C@@]4(C)CCOC4)cc23)cccc1C(F)(F)F` (single isomer, unassigned) [Example 54], in that order: 125 nM and 285 nM.
Regarding `Cc1c([C@@H](C)Nc2nn(C)c(=O)c3cc(=O)n([C@]4(C)CCOC4)cc23)cccc1C(F)(F)F` (single isomer, unassigned) [Example 55], the Kd in assay [1] was found to be 14 nM. Further, in assay [2], the IC50 came to 32.2 nM.
On the same counts, the results for `COc1c(=O)n([C@@H]2CCOC[C@@H]2F)cc2c(N[C@H](C)c3cccc(C(F)F)c3F)nn(C)c(=O)c12` (single isomer, unassigned) [Example 58] are 15 nM and 32.7 nM.
For `COc1c(=O)n([C@H]2CCOC[C@H]2F)cc2c(N[C@H](C)c3cccc(C(F)F)c3F)nn(C)c(=O)c12` (single isomer, unassigned) [Example 59], in that order: 441 nM and 1040 nM.
On the same counts, the results for `COc1c(=O)n([C@H]2CCOC[C@@H]2F)cc2c(N[C@H](C)c3cccc(C(F)F)c3F)nn(C)c(=O)c12` (single isomer, unassigned) [Example 60] are 43 nM and 129 nM.
As to `COc1c(=O)n([C@@H]2CCOC[C@H]2F)cc2c(N[C@H](C)c3cccc(C(F)F)c3F)nn(C)c(=O)c12` (single isomer, unassigned) [Example 61], the Kd in assay [1] is 10 nM. Moreover, in assay [2], the IC50 worked out at 25.9 nM.
With `C[C@@H](Nc1nn(C)c(=O)c2cc(=O)n([C@H]3CCOC(C)(C)C3)cc12)c1cccc(C(F)F)c1F` (single isomer, unassigned) [Example 83], in assay [1], the Kd was 11 nM. Moreover, the IC50 in assay [2] turned out to be 48.7 nM.
As to `C[C@@H](Nc1nn(C)c(=O)c2cc(=O)n([C@@H]3CCOC(C)(C)C3)cc12)c1cccc(C(F)F)c1F` (single isomer, unassigned) [Example 84], the equilibrium dissociation constant (Kd) in assay [1] worked out at 28 nM. For the same compound, the IC50 in assay [2] was determined as 229 nM.
For `Cc1c([C@@H](C)Nc2nn(C)c(=O)c3cc(=O)n(C4CC4)cc23)cccc1C(F)(F)F` [Example 2, (R)-6-cyclopropyl-2-methyl-4-((1-(2-methyl-3-(trifluoromethyl)phenyl)ethyl)amino)-2,6-dihydropyrido[3,4-d]pyridazine-1,7-dione], in that order: 57 nM and 328 nM.
For `Cc1c([C@@H](C)Nc2nn(C)c(=O)c3c(Br)c(=O)n(C4CC4)cc23)cccc1C(F)(F)F` [Example 3, (R)-8-bromo-6-cyclopropyl-2-methyl-4-((1-(2-methyl-3-(trifluoromethyl)phenyl)ethyl)amino)-2,6-dihydropyrido[3,4-d]pyridazine-1,7-dione], in that order: 63 nM and 345 nM.
On the same counts, the results for `Cc1c([C@@H](C)Nc2nn(C)c(=O)c3cc(=O)n(C4CCOCC4)cc23)cccc1C(F)(F)F` [Example 4, (R)-2-methyl-4-((1-(2-methyl-3-(trifluoromethyl)phenyl)ethyl)amino)-6-(tetrahydro-2H-pyran-4-yl)-2,6-dihydropyrido[3,4-d]pyridazine-1,7-dione] are 22 nM and 54.6 nM.
For the compound `C[C@@H](Nc1nn(C)c(=O)c2cc(=O)n(C3CCOCC3)cc12)c1cccc(C(F)(F)F)c1` [Example 5, (R)-2-methyl-6-(tetrahydro-2H-pyran-4-yl)-4-((1-(3-(trifluoromethyl)phenyl)ethyl)amino)-2,6-dihydropyrido[3,4-d]pyridazine-1,7-dione], in assay [1], the Kd came to 22 nM. Also, the IC50 in assay [2] was 96.4 nM.
On the same counts, the results for `COc1c(=O)n(C2CC2)cc2c(N[C@H](C)c3cccc(C(F)(F)F)c3C)nn(C)c(=O)c12` [Example 6, (R)-6-cyclopropyl-8-methoxy-2-methyl-4-((1-(2-methyl-3-(trifluoromethyl)phenyl)ethyl)amino)-2,6-dihydropyrido[3,4-d]pyridazine-1,7-dione] are 44 nM and 161 nM.
Turning to `Cc1c([C@@H](C)Nc2nn(C)c(=O)c3c(C)c(=O)n(C4CC4)cc23)cccc1C(F)(F)F` [Example 7, (R)-6-cyclopropyl-2,8-dimethyl-4-((1-(2-methyl-3-(trifluoromethyl)phenyl)ethyl)amino)-2,6-dihydropyrido[3,4-d]pyridazine-1,7-dione], the Kd in assay [1] turned out to be 259 nM. For the same compound, the IC50 in assay [2] came to 1050 nM.
For `CC(=O)N1CCC(n2cc3c(N[C@H](C)c4cccc(C(F)(F)F)c4C)nn(C)c(=O)c3cc2=O)CC1` [Example 9, (R)-6-(1-acetylpiperidin-4-yl)-2-methyl-4-((1-(2-methyl-3-(trifluoromethyl)phenyl)ethyl)amino)-2,6-dihydropyrido[3,4-d]pyridazine-1,7-dione], in that order: 64 nM and 286 nM.
